Measured values as given in paper PMC5515971, “Utility of spherical human liver microtissues for prediction of clinical drug-induced liver injury” (Archives of Toxicology, 2017).
Like-named read-outs stand apart in the source and are kept apart here.

How the values were obtained:
[1] = system: 3D human liver microtissues (hLiMT); assay: Cytotoxicity (cellular ATP, CellTiter-Glo 2.0) in 3D human liver microtissues, 14 day repeat-dose treatment
[2] = cited from earlier work
[3] = ref Chen et al 2016 / Chen et al 2011; cited from earlier work
[4] = cited from earlier work; for DILI category: clinical, from literature and product labels, ref Garside et al. 2014
[5] = system: primary human hepatocytes (PHH); assay: Cytotoxicity (cellular ATP, CellTiter-Glo) in 2D plated primary human hepatocytes, 48 h treatment; assay type: cell-based; details: for IC50: read-out: Geomean IC50;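 on all read-outs here: 384-well plates, luminescence read-out, normalized to vehicle wells with 1% DMSO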
[6] = Homo sapiens, Hepatocyte, 336 h, read-out: Geomean IC50 [µM]
[7] = human Cmax total, used for IC50/Cmax
[8] = human total plasma Cmax, ref literature values
[9] = Table 1, ref Garside et al. (2014)
[10] = clinical DILI severity category, 1-5
[11] = Hepatocyte, 2D primary human hepatocytes (lot IZT), 48 h treatment, total cellular ATP content
[12] = read-out: Geomean IC50, decrease in total cellular ATP content, hLiMT treated for 14 days, hepatocyte lot IZT (except Dexamethasone) co-cultured with NPCs, n=1 or geometric mean
[13] = 2D primary human hepatocytes (lot IZT), 48 h treatment, total cellular ATP content

SMILES | IC50 [1, 6] [µM] | Cmax [2, 7] [nM] | Cmax [2, 8] [nM] | FDA DILI Classification DILI severity score [3] | LTKB DILI classification [3] | DILI severity category [4, 9] | DILI severity category [4, 10] | DILI category [4] | IC50 [5, 11] [µM] | IC50 [1, 12] [µM] | IC50 [5, 13] [µM] | classification at 100 μM IC50 threshold ([1]; hLiMT 14 days) | IC50 ([5]; Homo sapiens, Hepatocyte, 48 h) [µM] | classification at 100 μM IC50 threshold ([5]; PHH 48 h) | classification at 50× MOS threshold ([5]; PHH 48 h)
Cn1cnc([N+](=O)[O-])c1Sc1ncnc2nc[nH]c12 [Azathioprine] | 22.2 | 7200 | 7210 | 5 | most DILI concern | 2: High clinical DILI concern (N = 23) | 2. High Clinical DILI Concern | 2. High Clinical DILI Concern | > 100 | – | – | – | – | – | –
Cc1cn([C@H]2C=C[C@@H](CO)O2)c(=O)[nH]c1=O [Stavudine] | > 500 | 3460 | 3460 | 8 | most DILI concern | 1: Severe clinical DILI (N = 23) | 1. Severe Clinical DILI | 1. Severe Clinical DILI | > 500 | – | – | – | – | – | –
N[C@@H]1[C@H]2CN(c3nc4c(cc3F)c(=O)c(C(=O)O)cn4-c3ccc(F)cc3F)C[C@@H]12 [Trovafloxacin] | > 125 | – | – | – | – | – | – | – | > 125 | – | – | – | – | – | –
CCN(CC)Cc1cc(Nc2ccnc3cc(Cl)ccc23)ccc1O [Amodiaquine] | < 7.8 | 1910 | 1910 | – | – | 2: High clinical DILI concern (N = 23) | 2. High Clinical DILI Concern | 2. High Clinical DILI Concern | 18.5 | – | – | – | – | – | –
CCOC(=O)C1=C(C)NC(C)=C(C(=O)OC)C1c1cccc(Cl)c1Cl (centres unmarked) [Felodipine] | > 10 | 30 | 30 | – | – | – | – | – | > 10 | – | – | – | – | – | –
O=C1CN(/N=C/c2ccc(-c3ccc([N+](=O)[O-])cc3)o2)C(O)=N1 [Dantrolene] | > 100 | 3950 | 3950 | 8 | most DILI concern | 1: Severe clinical DILI (N = 23) | 1. Severe Clinical DILI | 1. Severe Clinical DILI | > 100 | – | – | – | – | – | –
CCN(CC)CC#CCOC(=O)C(O)(c1ccccc1)C1CCCCC1 (centres unmarked) [Oxybutynin] | – | 22 | 22.4 | – | – | – | – | – | – | – | – | – | – | – | –
CC/C(=C(\c1ccccc1)c1ccc(OCCN(C)C)cc1)c1ccccc1 [Tamoxifen] | – | 400 | 400 | – | – | – | – | – | – | – | – | – | – | – | –
COC(=O)C1=C(C)NC(C)=C(C(=O)OCCN(C)Cc2ccccc2)C1c1cccc([N+](=O)[O-])c1 (centres unmarked) [Nicardipine] | – | 80 | 80 | – | – | – | – | – | – | – | – | – | – | – | –
CCN(CC)CCNC(=O)c1c(C)[nH]c(/C=C2\C(=O)Nc3ccc(F)cc32)c1C [Sunitinib] | ~2 | – | 70800 | 8 | most DILI concern | 1: Severe clinical DILI (N = 23) | 1. Severe Clinical DILI | 1. Severe Clinical DILI | 13.3 | – | – | – | – | – | –
O=C(O)COc1ccc(C(=O)c2cccs2)c(Cl)c1Cl [Tienilic Acid] | 567 | 82700 | 82700 | – | – | 1: Severe clinical DILI (N = 23) | 1. Severe Clinical DILI | 1. Severe Clinical DILI | > 100 | – | – | – | – | – | –
CC(C(=O)O)c1ccc2oc(-c3ccc(Cl)cc3)nc2c1 (centres unmarked) [Benoxaprofen] | > 100 | 149000 | 149000 | 8 | most DILI concern | 1: Severe clinical DILI (N = 23) | 1. Severe Clinical DILI | 1. Severe Clinical DILI | > 100 | – | – | – | – | – | –
CN(C)CCC=C1c2ccccc2CCc2ccccc21 [Amitriptyline] | 18.8 | 721 | 720 | 5 | less DILI concern | 3: Low clinical DILI concern (N = 23) | 3. Low Clinical DILI Concern | 3. Low Clinical DILI Concern | 41.8 | – | – | – | – | – | –
CN1[C@@H]2CC[C@H]1C[C@@H](OC(=O)[C@H](CO)c1ccccc1)C2 [Hyoscyamine (Daturine)] | – | – | – | – | – | – | – | – | – | > 10 | > 10 | – | – | – | –
C[C@H]1O[C@@H](O[C@H]2[C@@H](O)C[C@H](O[C@H]3[C@@H](O)C[C@H](O[C@H]4CC[C@@]5(C)[C@H](CC[C@@H]6[C@@H]5C[C@@H](O)[C@]5(C)[C@@H](C7=CC(=O)OC7)CC[C@]65O)C4)O[C@@H]3C)O[C@@H]2C)C[C@H](O)[C@@H]1O [Digoxin] | 0.33 | – | – | – | – | – | – | – | – | – | – | false positives | < 0.15 | false positives | false positive
N[C@@H](Cc1cc(I)c(Oc2ccc(O)c(I)c2)c(I)c1)C(=O)O [Liothyronine] | > 10 | 2.46 | 2.46 | – | – | – | – | – | – | – | – | – | > 10 | – | –
Cc1ccc(-c2cc(C(F)(F)F)nn2-c2ccc(S(N)(=O)=O)cc2)cc1 [Celocoxib] | – | 2540 | 2540 | – | – | 2: High clinical DILI concern (N = 23) | 2. High Clinical DILI Concern | 2. High Clinical DILI Concern | – | 26.2 | 155 | – | – | – | –
C[C@H]1COc2c(N3CCN(C)CC3)c(F)cc3c(=O)c(C(=O)O)cn1c23 [Levofloxacin] | > 320 | 15800 | 15800 | – | – | – | – | – | > 500 | – | – | – | – | – | –
